Results from publication PMC4356641 (European journal of oral sciences, 2015).
Values joined by “and” are separate entries in the source; they are usually repeats but may differ in a detail not shown here. Equal values may be shown once.

Assays:
[1] = test system: demineralized dentin collagen; conditions: cited from earlier work
soluble MMP-9 = conditions: cited from earlier work
MMP-2 = conditions: cited from earlier work
MMP-8 = conditions: cited from earlier work
MMP-9 = conditions: cited from earlier work
[2] = test system: total endogenous MMP activity of dentin (matrix-bound MMPs); type: biochemical, human; conditions: 1.0% w/v aqueous BAC applied for 60 s; relative to untreated control with 0% inhibition; mean (SD), n = 10
MMP = conditions: cited from earlier work

C=C(C)C(=O)OCCCCCCCCCCCC[n+]1ccccc1.[Br-] [MDPB, 12-methacryloyloxydodecylpyridinium bromide]
Inhibition of degradation of demineralized dentin collagen [1]: almost completely inhibited
Inhibition of soluble MMP-9 (soluble MMP-9): effectively inhibited soluble MMP-9 as or more effectively as Galardin

[H]/N=C(\N/C(=N/[H])NCCCCCCNC(=N)NC(=N)Nc1ccc(Cl)cc1)Nc1ccc(Cl)cc1 [CHX, Chlorhexidine]
Inhibition of MMP-2 (MMP-2): potent inhibitor
Inhibition of MMP-8 (MMP-8): potent inhibitor
Inhibition of MMP-9 (MMP-9): potent inhibitor

Benzalkonium chloride [BAC]
% MMP inhibition (total MMP activity) [2]: 54% and 54.2 (9.0) ^C %
MMP inhibition (MMP; 1.0% BAC): 55–66%
MMP inhibition relative to 1.0% BAC (MMP; 2.0% BAC): did not yield additional MMP inhibition
